From ChEMBL document CHEMBL3046912, “Effectiveness of 1,3-dichloropropene as an alternative to methyl bromide in rotations of tomato (Solanum lycopersicum) and cucumber (Cucumis sativus) in China” (2012)

Legend:
Type in all cases: functional
[1] = tested on: Solanum lycopersicum; assay: Increase in plant height of Solanum lycopersicum (tomato) exposed to 180 L/ha compound fumigation treatment measured 30 days after compound treatment (reference value: 28.4 cm)
[2] = tested on: Digitaria sanguinalis; assay: Herbicidal activity against Digitaria sanguinalis (hairy crabgrass) in cucumber plants fields exposed to 120 L/ha compound fumigation treatment assessed as hand weeding time per plot (reference value: 258.3 hr/ha)
[3] = tested on: Arenaria serpyllifolia; assay: Herbicidal activity against Arenaria serpyllifolia in tomato plants fields exposed to 90 L/ha compound fumigation treatment assessed as hand weeding time per plot relative to untreated control
[4] = tested on: Digitaria sanguinalis; assay: Herbicidal activity against Digitaria sanguinalis (hairy crabgrass) in tomato plants fields exposed to 90 L/ha compound fumigation treatment assessed as hand weeding time per plot relative to untreated control
[5] = tested on: Solanum lycopersicum; assay: Increase in crop yield in Cucumis sativus (cucumber) plants exposed to 180 L/ha compound fumigation treatment assessed as medium fruit yield (reference value: 38.6 ton/ha)
[6] = tested on: Digitaria sanguinalis; assay: Herbicidal activity against Digitaria sanguinalis (hairy crabgrass) in cucumber plants fields exposed to 90 L/ha compound fumigation treatment assessed as hand weeding time per plot relative to untreated control

Cl/C=C/CCl [1,3-DICHLOROPROPENE]
Activity [1]: 45.4 cm
Time [2]: 74.4 hr/ha
Activity [3]: 45%
Activity [4]: 45%
Crop_yield [5]: 52.3 tons/ha
Activity [6]: 45%
